# Data taken from PubChem BioAssay (NCI).
#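 In this assay, cells in 96-well plates receive the compound at five concentrations for 48 hours. Endpoints are linearly interpolated between the surrounding concentrations. The concentration for 50% growth inhibition is given as GI50. The concentration for full growth arrest is given as TGI.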
# What was measured:
# Test in all cases: NCI tumour cell line growth inhibition, 48 h
# HCT-116 colon = system: HCT-116 colon
# MDA-MB-435 = system: MDA-MB-435
# SF-295 CNS = system: SF-295 CNS
# COLO 205 colon = system: COLO 205 colon
# SNB-19 CNS = system: SNB-19 CNS
# RXF 393 renal = system: RXF 393 renal
# PC-3 prostate = system: PC-3 prostate
# M14 melanoma = system: M14 melanoma
# MOLT-4 leukemia = system: MOLT-4 leukemia
# NCI/ADR-RES ovarian = system: NCI/ADR-RES ovarian
# HCC-2998 colon = system: HCC-2998 colon
# T-47D breast = system: T-47D breast
# HOP-92 NSCLC = system: HOP-92 NSCLC
# HT29 colon = system: HT29 colon
# SF-539 CNS = system: SF-539 CNS
# EKVX NSCLC = system: EKVX NSCLC
# MDA-MB-468 breast = system: MDA-MB-468 breast
# A549 NSCLC = system: A549 NSCLC
# TK-10 renal = system: TK-10 renal
# LOX IMVI melanoma = system: LOX IMVI melanoma
# HOP-62 NSCLC = system: HOP-62 NSCLC
# ACHN renal = system: ACHN renal
# U251 CNS = system: U251 CNS
# 786-0 renal = system: 786-0 renal
# HCT-15 colon = system: HCT-15 colon
# OVCAR-8 ovarian = system: OVCAR-8 ovarian
# UACC-257 melanoma = system: UACC-257 melanoma
# A498 renal = system: A498 renal
# BT-549 breast = system: BT-549 breast
# KM12 colon = system: KM12 colon
# NCI-H226 lung = system: NCI-H226 lung
# SK-MEL-28 melanoma = system: SK-MEL-28 melanoma
# DU-145 prostate = system: DU-145 prostate
# OVCAR-3 ovarian = system: OVCAR-3 ovarian
# SR leukemia = system: SR leukemia
# NCI-H23 lung = system: NCI-H23 lung
# MALME-3M melanoma = system: MALME-3M melanoma
# UACC-62 melanoma = system: UACC-62 melanoma
# RPMI-8226 leukemia = system: RPMI-8226 leukemia
# SK-MEL-5 melanoma = system: SK-MEL-5 melanoma
# NCI-H522 lung = system: NCI-H522 lung
# CCRF-CEM leukemia = system: CCRF-CEM leukemia
# MCF7 breast = system: MCF7 breast
# SW-620 colon = system: SW-620 colon
# SK-OV-3 ovarian = system: SK-OV-3 ovarian
# SN12C renal = system: SN12C renal
# NCI-H460 lung = system: NCI-H460 lung
# HL-60(TB) leukemia = system: HL-60(TB) leukemia
# CAKI-1 renal = system: CAKI-1 renal
# K-562 leukemia = system: K-562 leukemia
# OVCAR-4 ovarian = system: OVCAR-4 ovarian
# HS 578T breast = system: HS 578T breast
# OVCAR-5 ovarian = system: OVCAR-5 ovarian
# IGROV1 ovarian = system: IGROV1 ovarian
# SF-268 CNS = system: SF-268 CNS
smiles,measurement,setting,value
C[C@H]1[C@@H](CC(=O)N[C@@H](Cc2coc3ccccc23)B(O)O)O[C@@H]2OC3(C)CC[C@H]4[C@H](C)CC[C@@H]1[C@@]24O3,GI50,HCT-116 colon,2.19 µM
same,TGI,HCT-116 colon,5.56 µM
same,GI50,MDA-MB-435,2.06 µM
same,TGI,MDA-MB-435,5.03 µM
same,GI50,SF-295 CNS,1.92 µM
same,TGI,SF-295 CNS,6.27 µM
same,GI50,COLO 205 colon,3.07 µM
same,TGI,COLO 205 colon,12.2 µM
same,GI50,SNB-19 CNS,6.28 µM
same,TGI,SNB-19 CNS,> 100 µM
same,GI50,RXF 393 renal,1.53 µM
same,TGI,RXF 393 renal,3.47 µM
same,GI50,PC-3 prostate,5.47 µM
same,TGI,PC-3 prostate,40.1 µM
same,GI50,M14 melanoma,2.1 µM
same,TGI,M14 melanoma,5.96 µM
same,GI50,MOLT-4 leukemia,1.48 µM
same,TGI,MOLT-4 leukemia,6.61 µM
same,GI50,NCI/ADR-RES ovarian,11.6 µM
same,TGI,NCI/ADR-RES ovarian,26.3 µM
same,GI50,HCC-2998 colon,2.22 µM
same,TGI,HCC-2998 colon,4.45 µM
same,GI50,T-47D breast,3.3 µM
same,TGI,T-47D breast,16.5 µM
same,GI50,HOP-92 NSCLC,3.88 µM
same,TGI,HOP-92 NSCLC,15.4 µM
same,GI50,HT29 colon,2.27 µM
same,TGI,HT29 colon,5.36 µM
same,GI50,SF-539 CNS,1.92 µM
same,TGI,SF-539 CNS,4.05 µM
same,GI50,EKVX NSCLC,5.01 µM
same,TGI,EKVX NSCLC,23.6 µM
same,GI50,MDA-MB-468 breast,1.93 µM
same,TGI,MDA-MB-468 breast,4.49 µM
same,GI50,A549 NSCLC,3.66 µM
same,TGI,A549 NSCLC,18.7 µM
same,GI50,TK-10 renal,2.71 µM
same,TGI,TK-10 renal,8.86 µM
same,GI50,LOX IMVI melanoma,1.83 µM
same,TGI,LOX IMVI melanoma,4.34 µM
same,GI50,HOP-62 NSCLC,2.8 µM
same,TGI,HOP-62 NSCLC,12.3 µM
same,GI50,ACHN renal,3.08 µM
same,TGI,ACHN renal,> 100 µM
same,GI50,U251 CNS,3.78 µM
same,TGI,U251 CNS,15.4 µM
same,GI50,786-0 renal,4.24 µM
same,TGI,786-0 renal,19.2 µM
same,GI50,HCT-15 colon,2.22 µM
same,TGI,HCT-15 colon,5.88 µM
same,GI50,OVCAR-8 ovarian,9.53 µM
same,TGI,OVCAR-8 ovarian,24.7 µM
same,GI50,UACC-257 melanoma,1.85 µM
same,TGI,UACC-257 melanoma,4.19 µM
same,GI50,A498 renal,4.45 µM
same,TGI,A498 renal,16.6 µM
same,GI50,BT-549 breast,1.64 µM
same,TGI,BT-549 breast,4.2 µM
same,GI50,KM12 colon,3.42 µM
same,TGI,KM12 colon,11.6 µM
same,GI50,NCI-H226 lung,1.3 µM
same,TGI,NCI-H226 lung,2.84 µM
same,GI50,SK-MEL-28 melanoma,2.92 µM
same,TGI,SK-MEL-28 melanoma,11.5 µM
same,GI50,DU-145 prostate,8.58 µM
same,TGI,DU-145 prostate,51.6 µM
same,GI50,OVCAR-3 ovarian,3.07 µM
same,TGI,OVCAR-3 ovarian,11.1 µM
same,GI50,SR leukemia,1.48 µM
same,TGI,SR leukemia,5.16 µM
same,GI50,NCI-H23 lung,3.16 µM
same,TGI,NCI-H23 lung,14.6 µM
same,GI50,MALME-3M melanoma,1.88 µM
same,TGI,MALME-3M melanoma,6.77 µM
same,GI50,UACC-62 melanoma,1.89 µM
same,TGI,UACC-62 melanoma,4.26 µM
same,GI50,RPMI-8226 leukemia,1.23 µM
same,TGI,RPMI-8226 leukemia,5.65 µM
same,GI50,SK-MEL-5 melanoma,2.29 µM
same,TGI,SK-MEL-5 melanoma,5.48 µM
same,GI50,NCI-H522 lung,1.82 µM
same,TGI,NCI-H522 lung,4.26 µM
same,GI50,CCRF-CEM leukemia,2.45 µM
same,TGI,CCRF-CEM leukemia,12.2 µM
same,GI50,MCF7 breast,3.49 µM
same,TGI,MCF7 breast,18.5 µM
same,GI50,SW-620 colon,2.69 µM
same,TGI,SW-620 colon,11.5 µM
same,GI50,SK-OV-3 ovarian,5.37 µM
same,TGI,SK-OV-3 ovarian,19.2 µM
same,GI50,SN12C renal,4.07 µM
same,TGI,SN12C renal,15.9 µM
same,GI50,NCI-H460 lung,3.89 µM
same,TGI,NCI-H460 lung,15.2 µM
same,GI50,HL-60(TB) leukemia,2.25 µM
same,TGI,HL-60(TB) leukemia,6.84 µM
same,GI50,CAKI-1 renal,4.2 µM
same,TGI,CAKI-1 renal,23.7 µM
same,GI50,K-562 leukemia,3.25 µM
same,TGI,K-562 leukemia,22.9 µM
same,GI50,OVCAR-4 ovarian,6.09 µM
same,TGI,OVCAR-4 ovarian,> 100 µM
same,GI50,HS 578T breast,2.56 µM
same,TGI,HS 578T breast,9.97 µM
same,GI50,OVCAR-5 ovarian,2.92 µM
same,TGI,OVCAR-5 ovarian,13.7 µM
same,GI50,IGROV1 ovarian,4.03 µM
same,TGI,IGROV1 ovarian,18.9 µM
same,GI50,SF-268 CNS,4.67 µM
same,TGI,SF-268 CNS,> 100 µM
